According to patent US11993609B2, “Compositions and methods for oral delivery of crystalline PRX-3140 potassium salt” (Nanopharmaceutics, Inc., priority 2022, dated 2024):
“Also recorded” adds a separate entry of the source. Read-outs that look alike come from different tables or passages of the source.

Tests used:
[1] = forced degradation study (acid, base, 3% hydrogen peroxide), LC-UV-MS; type: physicochemical
Procedure: Crystalline fine particle Form I of PRX-3140 potassium salt was subjected to a forced degradation study using acid, base, or hydrogen peroxide exposure for 24 hours. Samples were neutralized and analyzed using LC-UV-MS. [table] Sample Preparation: […] One mL of stock was added to four, 4 mL vials. […] After storage, the samples of acid and base were neutralized by addition of 1 mL their counter solution. […] Samples were analyzed using LC-UV-MS. Table 5 lists a comparison for the control, acid, base, and peroxide samples showing percent peak area versus relative retention time (RRT) at 250 nm. While some minor changes can be noted between the control with the acid and base samples, the overall purity (peak area) of the parent molecule is just slightly higher for the acid and base sample. Some of the minor impurities appear to be reacting with the acid or base, potentially reforming to the parent.

[2] = 30% peroxide degradation study, LC/UV/MS; type: physicochemical; details: 18-hour exposure to 30% hydrogen peroxide, HPLC 250 nm
[3] = photostability study (ICH Q1B), HPLC; type: physicochemical
Procedure: Two samples of crystalline fine particle Form I of PRX-3140 potassium salt were prepared for photostability testing: (1) 1.5 grams spread evenly across a glass Petri dish and covered with a transparent quartz cover and (2) 1.5 grams spread evenly across a glass Petri dish and covered with aluminum foil. […] Samples were exposed for 2 days and tested using HPLC […] […] Changes were evident for crystalline fine particle Form I of PRX-3140 potassium salt after exposure to UVA and white light. The sample changed color particularly on the upper exposed surface of the material and there were changes apparent in the HPLC data. […] The single impurity profile met the specification (<0.2%) but significant changes were observed. […] Other changes included a change in appearance of the material to a sticky solid and an increase in water content to 4.3% w/w.

[4] = early-stage clinical studies (safety, tolerability, pharmacokinetics); type: in vivo
From the text: (§1) PRX-3140 is being developed for Alzheimer's disease (AD) and other dementias affecting the cholinergic and/or serotonergic systems including post-traumatic stress disorder (PTSD). Extensive non-clinical studies have been completed including in vitro and in vivo pharmacology, safety pharmacology, genotoxicity as well as single and repeat dose toxicology studies in two species, rat and beagle dog.

[5] = molecular target: Sigma-1 receptor (Homo sapiens, UniProt Q99720); test: Sigma-1 radioligand binding assays
Chain of Sigma-1 receptor (Q99720 whole entry): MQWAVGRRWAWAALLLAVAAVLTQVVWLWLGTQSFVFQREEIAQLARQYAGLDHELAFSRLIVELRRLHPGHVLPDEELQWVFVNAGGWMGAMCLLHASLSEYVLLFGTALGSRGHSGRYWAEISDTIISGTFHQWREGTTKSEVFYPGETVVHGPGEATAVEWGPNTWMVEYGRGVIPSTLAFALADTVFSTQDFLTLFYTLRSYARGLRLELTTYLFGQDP
From the text: (§2) The specific ligand binding to the receptors is defined as the difference between the total binding and the nonspecific binding determined in the presence of an excess of unlabelled ligand.

[6] = brain/serum partition after oral administration in preclinical studies; details: in vivo
From the text: as §1

[7] = test system: more than 50 other receptors tested including GPCRs, ion channels and receptor tyrosine kinases; test: binding panel of other receptors
From the text: as §2

[8] = test system: all other 5-HT receptors tested; test: radioligand binding, other 5-HT receptors (selectivity); details: vs 5-HT4R affinity
From the text: as §2

[9] = test system: distal gastrointestinal motility; test: distal gastrointestinal motility; details: in vivo
From the text: as §1

[10] = molecular target: Sigma-2 receptor (Homo sapiens, UniProt Q5BJF2); test: Sigma-2 radioligand binding assays
Chain of Sigma-2 receptor (Q5BJF2 whole entry): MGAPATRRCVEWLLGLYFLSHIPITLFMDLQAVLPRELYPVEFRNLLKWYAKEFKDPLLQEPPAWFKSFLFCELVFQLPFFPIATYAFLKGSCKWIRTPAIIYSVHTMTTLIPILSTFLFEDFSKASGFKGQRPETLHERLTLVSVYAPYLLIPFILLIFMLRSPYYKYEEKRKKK
From the text: as §2

[11] = test system: distal gastrointestinal motility; details: gastrointestinally active 5-HT4 agonists, comparison; cited from earlier work
[12] = Acid (1N HCl, 24 hours), 250 nm
[13] = Base (1N NaOH, 24 hours), 250 nm
[14] = Control (DI water, 24 hours), 250 nm
[15] = Control (covered with aluminum foil), potassium salt
[16] = Exposed Sample (ICH Q1B light, 2 days), potassium salt

Compound: CC(C)n1c(=O)c(C(=O)NCCCN2CCCCC2)c([O-])c2ccsc21.[K+] [PRX-3140 potassium salt, 6,7-Dihydro-4-hydroxy-7-isopropyl-6-oxo-N-(3-(piperidin-1-yl)propyl)thieno[2,3-b]pyridine-5-carboxamide potassium salt]
- effect of acid on the compound ([1]; 1 N HCl for 24 hours): very little effect
- effect of base on the compound ([1]; 1 N NaOH for 24 hours): very little effect
- percent peak area, RRT 0.99 [1, 12]: 0.07%
- percent peak area, RRT 1.05 (PRX-3140b) [1, 12]: <0.03%
- percent peak area, RRT 1.08 [1, 12]: 0.11%
- percent peak area, RRT 1.11 [1, 12]: 0.04%
- percent peak area, RRT 1.27 [1, 12]: 0.04%
- percent peak area, RRT 1.34 [1, 12]: 0.15%
- percent peak area, RRT 1.53 [1, 12]: 0.43%
- percent peak area, RRT 1.79 [1, 12]: 0.04%
- percent peak area, RRT 2.51 [1, 12]: 0.06%
- percent peak area, RRT 2.70 [1, 12]: 0.13%
- percent peak area, RRT 1.00 (parent molecule, purity) ([1]; Acid (1N HCl, 24 hours), 250 nm, listed as PRX-3140 Potassium Salt, potassium salt): 98.94%
- percent peak area, RRT 1.00 (parent molecule, purity) ([1]; Acid (1N HCl, 24 hours), 250 nm, potassium salt): 98.9%
- percent peak area, RRT 0.94 [1, 13]: 0.28%
- percent peak area, RRT 1.05 (PRX-3140b) [1, 13]: <0.03%
- percent peak area, RRT 1.08 [1, 13]: 0.12%
- percent peak area, RRT 1.34 [1, 13]: 0.16%
- percent peak area, RRT 1.53 [1, 13]: 0.42%
- percent peak area, RRT 1.79 [1, 13]: 0.05%
- percent peak area, RRT 2.51 [1, 13]: 0.05%
- percent peak area, RRT 2.70 [1, 13]: 0.12%
- percent peak area, RRT 1.00 (parent molecule, purity) ([1]; Base (1N NaOH, 24 hours), 250 nm, listed as PRX-3140 Potassium Salt, potassium salt): 98.71%
- percent peak area, RRT 1.00 (parent molecule, purity) ([1]; Base (1N NaOH, 24 hours), 250 nm, potassium salt): 98.7%
- percent peak area, RRT 1.05 (PRX-3140b) [1, 14]: <0.03%
- percent peak area, RRT 1.08 [1, 14]: 0.12%
- percent peak area, RRT 1.11 [1, 14]: 0.04%
- percent peak area, RRT 1.34 [1, 14]: 0.17%
- percent peak area, RRT 1.53 [1, 14]: 0.42%
- percent peak area, RRT 1.71 [1, 14]: 0.23%
- percent peak area, RRT 1.79 [1, 14]: 0.11%
- percent peak area, RRT 1.93 [1, 14]: 0.06%
- percent peak area, RRT 2.51 [1, 14]: 0.06%
- percent peak area, RRT 2.70 [1, 14]: 0.18%
- percent peak area, RRT 1.00 (parent molecule, purity) ([1]; Control (DI water, 24 hours), 250 nm, listed as PRX-3140, potassium salt): 98.6%
- percent peak area, RRT 1.00 (parent molecule, purity) ([1]; Control (DI water, 24 hours), 250 nm, listed as PRX-3140 Potassium Salt, potassium salt): 98.60%
- percent peak area, RRT 1.00 (parent molecule, purity) ([1]; Control (DI water, 24 hours), 250 nm, potassium salt): 98.6%
- percent peak area, RRT 0.78 (PRX-3140a) ([1]; H2O2 (3%, 24 hours), 250 nm): 8.49%
- percent peak area, RRT 0.82 ([1]; H2O2 (3%, 24 hours), 250 nm): 0.10%
- percent peak area, RRT 1.05 (PRX-3140b) ([1]; H2O2 (3%, 24 hours), 250 nm): 9.06%
- percent peak area, RRT 1.08 ([1]; H2O2 (3%, 24 hours), 250 nm): 0.19%
- percent peak area, RRT 1.27 ([1]; H2O2 (3%, 24 hours), 250 nm): 0.21%
- percent peak area, RRT 1.34 ([1]; H2O2 (3%, 24 hours), 250 nm): 0.09%
- percent peak area, RRT 1.42 ([1]; H2O2 (3%, 24 hours), 250 nm): 0.32%
- percent peak area, RRT 1.53 ([1]; H2O2 (3%, 24 hours), 250 nm): 0.42%
- percent peak area, RRT 1.79 ([1]; H2O2 (3%, 24 hours), 250 nm): 0.19%
- percent peak area, RRT 2.70 ([1]; H2O2 (3%, 24 hours), 250 nm): 0.11%
- percent peak area, RRT 1.00 (parent molecule, purity) ([1]; H2O2 (3%, 24 hours), 250 nm, listed as PRX-3140, potassium salt): 80.6%
- percent peak area, RRT 1.00 (parent molecule, purity) ([1]; H2O2 (3%, 24 hours), 250 nm, listed as PRX-3140 Potassium Salt, potassium salt): 80.57%
- percent peak area, RRT 1.00 (parent molecule, purity) ([1]; H2O2 (3%, 24 hours), 250 nm, potassium salt): 80.6%
- purity of the parent molecule [2]: 29.6%
- Unknown (RRT 0.55) ([3]; Control): 0.01%
- Unknown (RRT 0.74) ([3]; Control): 0.01%
- Unknown (RRT 0.75) ([3]; Control): 0.01%
- Unknown (RRT 0.87) ([3]; Control): 0.09%
- Unknown (RRT 0.95) ([3]; Control): 0.04%
- Unknown (RRT 0.98) ([3]; Control): 0.01%
- Unknown (RRT 1.07) ([3]; Control): 0.01%
- Unknown (RRT 1.12) ([3]; Control): 0.01%
- Unknown (RRT 1.22) ([3]; Control): 0.01%
- Appearance ([3]; Control (covered with aluminum foil)): Pinkish solid
- Total impurities [3, 15]: 0.20%
- Water Content - KF [3, 15]: 3.1 % w/w
- Unknown (RRT 0.55) ([3]; Exposed Sample): 0.01%
- Unknown (RRT 0.74) ([3]; Exposed Sample): 0.02%
- Unknown (RRT 0.75) ([3]; Exposed Sample): 0.01%
- Unknown (RRT 0.86) ([3]; Exposed Sample): 0.01%
- Unknown (RRT 0.87) ([3]; Exposed Sample): 0.10%
- Unknown (RRT 0.90) ([3]; Exposed Sample): 0.01%
- Unknown (RRT 0.91) ([3]; Exposed Sample): 0.01%
- Unknown (RRT 0.95) ([3]; Exposed Sample): 0.05%
- Unknown (RRT 0.98) ([3]; Exposed Sample): 0.04%
- Unknown (RRT 1.07) ([3]; Exposed Sample): 0.06%
- Unknown (RRT 1.12) ([3]; Exposed Sample): 0.02%
- Unknown (RRT 1.22) ([3]; Exposed Sample): 0.01%
- Unknown (RRT 1.50) ([3]; Exposed Sample): 0.02%
- Unknown (RRT 1.54) ([3]; Exposed Sample): 0.01%
- Unknown (RRT 1.57) ([3]; Exposed Sample): 0.01%
- Unknown (RRT 1.63) ([3]; Exposed Sample): 0.05%
- Unknown (RRT 1.75) ([3]; Exposed Sample): 0.04%
- Unknown (RRT 1.76) ([3]; Exposed Sample): 0.03%
- Unknown (RRT 1.79) ([3]; Exposed Sample): 0.01%
- Unknown (RRT 2.06) ([3]; Exposed Sample): 0.01%
- Unknown (RRT 2.08) ([3]; Exposed Sample): 0.01%
- Unknown (RRT 2.16) ([3]; Exposed Sample): 0.01%
- Appearance [3, 16]: sticky solid; also recorded: Orange
- Total impurities [3, 16]: 0.77%
- Water Content - KF [3, 16]: 4.3 % w/w
- Unknown (RRT 1.72) ([3]; Exposed Sample, first RRT 1.72 line (r24)): 0.04%
- Unknown (RRT 1.83) ([3]; Exposed Sample, potassium salt): 0.16%
- Unknown (RRT 1.72) ([3]; Exposed Sample, second RRT 1.72 line (r25)): 0.02%
- assay value ([3]; illuminated photostability sample): 94.2 % w/w
- Appearance ([3]; t = 0): Light brown solid
- Total impurities ([3]; t = 0): 0.22%
- Unknown (RRT 0.55) ([3]; t = 0): 0.01%
- Unknown (RRT 0.74) ([3]; t = 0): 0.01%
- Unknown (RRT 0.75) ([3]; t = 0): 0.01%
- Unknown (RRT 0.87) ([3]; t = 0): 0.09%
- Unknown (RRT 0.95) ([3]; t = 0): 0.05%
- Unknown (RRT 0.98) ([3]; t = 0): 0.01%
- Unknown (RRT 1.12) ([3]; t = 0): 0.01%
- Unknown (RRT 1.22) ([3]; t = 0): 0.01%
- Unknown (RRT 2.01) ([3]; t = 0): 0.01%
- Unknown (RRT 2.16) ([3]; t = 0): 0.01%
- Unknown (RRT 2.38) ([3]; t = 0): 0.01%
- Water Content - KF ([3]; t = 0, potassium salt): 0.9 % w/w
- oral bioavailability [4]: high oral bioavailability
- Ki [5]: 79 to 100 nM
- CNS penetration [6]: high CNS penetration
- affinity for other receptors [7]: no significant affinity
- difference in affinities compared with all other 5-HT receptors tested [8]: more than 100 fold
- distal gastrointestinal motility [9]: without inducing significant distal gastrointestinal motility
- Ki [10]: 99 to 160 nM

Compound: COc1cc(N)c(Cl)cc1C(=O)NC1CCN(CCCOc2ccc(F)cc2)CC1OC (centres unmarked) [cisapride]
- distal gastrointestinal motility [11]: significant distal gastrointestinal motility observed

Compound: CCCCCNC(=N)N/N=C/c1c[nH]c2ccc(OC)cc12 [tegaserod]
- distal gastrointestinal motility [11]: significant distal gastrointestinal motility observed

Compound: [7-(methylethyl)1,4,6-trioxo(5,7-dihydrothiopheno[2,3-b]pyridine-5-yl)]-N-(3-piperidylpropyl)carboxamide [PRX-3140b]
- percent peak area, RRT 1.05 (PRX-3140b) [1, 12]: < 0.03%
- percent peak area, RRT 1.05 (PRX-3140b) [1, 13]: < 0.03%
- percent peak area, RRT 1.05 (PRX-3140b) [1, 14]: < 0.03%
- percent peak area, RRT 1.05 (PRX-3140b) ([1]; H2O2 (3%, 24 hours), 250 nm): 9.1%
